The values that follow are results of earlier work, collected in patent US20230167505A1, “CIRCULATING TUMOR DNA AS A BIOMARKER FOR LEUKEMIA TREATMENT” (Cardiff Oncology, Inc., priority 2020, published 2023).

What is called half-life is the time in which the quantity being followed falls by half.

The conditions of the data set: in vivo; cited from earlier work.

Consider `CC[C@@H]1C(=O)N(C)c2cnc(Nc3ccc(C(=O)N[C@H]4CC[C@H](N5CCN(CC6CC6)CC5)CC4)cc3OC)nc2N1C(C)C` [volasertib], for which the half-life is ~120 h.
